Laboratory results reported in PubChem BioAssay AID1963867 (Molecular Pharmacology Branch, DTP, NCI, 2024).

Tested on: KRAS-mutant PDC tumor spheroid with HUVEC/MSC, viability
Assay: Anticancer human tumor 327498-153-R-J2-PDC patient-derived uterine carcinosarcoma cell line growth inhibition [KRAS2]
Details: for IC50: curve of first compound; for viability, T/C: stronger effect = lower value
Method in brief: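 Combination screen of spheroid viability in tumor-cell co-cultures with endothelial (HUVEC) and mesenchymal stem cell stroma. Each agent was tested in half-log dilutions, topping at clinical Cmax or at 10 microM without a known Cmax.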

[1] = second compound 0.1 µM, first compound 0.0316 µM
[2] = second compound 0.1 µM, first compound 0.1 µM
[3] = second compound 0.1 µM, first compound 0.316 µM
[4] = second compound 0.1 µM, first compound 1 µM
[5] = second compound 0.1 µM, first compound 3.16 µM
[6] = second compound 0.316 µM, first compound 0.0316 µM
[7] = second compound 0.316 µM, first compound 0.1 µM
[8] = second compound 0.316 µM, first compound 0.316 µM
[9] = second compound 0.316 µM, first compound 1 µM
[10] = second compound 0.316 µM, first compound 3.16 µM
[11] = second compound 1 µM, first compound 0.0316 µM
[12] = second compound 1 µM, first compound 0.1 µM
[13] = second compound 1 µM, first compound 0.316 µM
[14] = second compound 1 µM, first compound 1 µM
[15] = second compound 1 µM, first compound 3.16 µM
[16] = second compound 3.16 µM, first compound 0.0316 µM
[17] = second compound 3.16 µM, first compound 0.1 µM
[18] = second compound 3.16 µM, first compound 0.316 µM
[19] = second compound 3.16 µM, first compound 1 µM
[20] = second compound 3.16 µM, first compound 3.16 µM
[21] = second compound 10 µM, first compound 0.0316 µM
[22] = second compound 10 µM, first compound 0.1 µM
[23] = second compound 10 µM, first compound 0.316 µM
[24] = second compound 10 µM, first compound 1 µM
[25] = second compound 10 µM, first compound 3.16 µM
[26] = second compound 0.1 µM, first compound 0.01 µM
[27] = second compound 0.316 µM, first compound 0.01 µM
[28] = second compound 1 µM, first compound 0.01 µM
[29] = second compound 3.16 µM, first compound 0.01 µM
[30] = second compound 10 µM, first compound 0.01 µM
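Further: spheroids exposed to agents for seven days before reading.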
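Wherever viability, T/C is given: 100% = DMSO vehicle wells so lower means fewer viable cells.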

Compound	IC50 (second compound 0.1 µM) [µM]	IC50 (second compound 0.316 µM) [µM]	IC50 (second compound 1 µM) [µM]	IC50 (second compound 3.16 µM) [µM]	IC50 (second compound 10 µM) [µM]	viability, T/C [1] [%]	viability, T/C [2] [%]	viability, T/C [3] [%]	viability, T/C [4] [%]	viability, T/C [6] [%]	viability, T/C [7] [%]	viability, T/C [8] [%]	viability, T/C [9] [%]	viability, T/C [11] [%]	viability, T/C [12] [%]	viability, T/C [13] [%]	viability, T/C [14] [%]	viability, T/C [16] [%]	viability, T/C [17] [%]	viability, T/C [18] [%]	further results
CC(C)NCC(C(=O)N1CCN(c2ncnc3c2C(C)CC3O)CC1)c1ccc(Cl)cc1 (stereo not given) + COc1cc2nc(C)nc(NC(C)c3cc(N)cc(C(F)(F)F)c3)c2cc1OC1CCOC1	0.195	0.102	0.0907	< 0.0316	< 0.0316	70.8	57.7	44	26.3	62.5	49.5	34.4	21.7	60	51	28.8	17.7	54.4	42.1	43.6	viability, T/C [5]: 9.54%; viability, T/C (second compound 0.1 µM, first compound 10 µM): 9.87%; viability, T/C [10]: 8.09%; viability, T/C (second compound 0.316 µM, first compound 10 µM): 9.57%; viability, T/C [15]: 7.32%; viability, T/C (second compound 1 µM, first compound 10 µM): 3.46%; viability, T/C [19]: 14.2%; viability, T/C [20]: 8.44%; viability, T/C (second compound 3.16 µM, first compound 10 µM): 8.27%; viability, T/C [21]: 37.8%; viability, T/C [22]: 27.3%; viability, T/C [23]: 16.6%; viability, T/C [24]: 5.51%; viability, T/C [25]: 0.16%; viability, T/C (second compound 10 µM, first compound 10 µM): 0.34%
CCN1CCN(Cc2ccc(Nc3ncc(F)c(-c4cc(F)c5nc(C)n(C(C)C)c5c4)n3)nc2)CC1 + CC1OCC2(CCN(c3cnc(Sc4ccnc(N)c4Cl)c(N)n3)CC2)C1N	0.00823	< 0.00316	< 0.00316	< 0.00316	< 0.00316	36.7	37.9	44.6	45.5	26.9	29.2	26.6	33.5	24.5	21.3	22	26.5	16.2	16.7	18.5	viability, T/C (second compound 0.1 µM, first compound 0.00316 µM): 61.5%; viability, T/C [26]: 49%; viability, T/C (second compound 0.316 µM, first compound 0.00316 µM): 42.5%; viability, T/C [27]: 31.6%; viability, T/C (second compound 1 µM, first compound 0.00316 µM): 34.2%; viability, T/C [28]: 23.7%; viability, T/C (second compound 3.16 µM, first compound 0.00316 µM): 20%; viability, T/C [29]: 16.6%; viability, T/C [19]: 22.1%; viability, T/C (second compound 10 µM, first compound 0.00316 µM): 19%; viability, T/C [30]: 16.2%; viability, T/C [21]: 17.8%; viability, T/C [22]: 16.9%; viability, T/C [23]: 20.8%; viability, T/C [24]: 22%
CC1COCCN1c1cc(-c2ccnn2C)c2ccnc(-c3ccn[nH]3)c2n1 (stereo not given) + C=CC(=O)N1CCN(c2nc(=O)n(-c3c(C)ccnc3C(C)C)c3nc(-c4c(O)cccc4F)c(F)cc23)C(C)C1	0.0129	< 0.01	< 0.01	< 0.01	< 0.01	24.8	8.42	5.52	6.25	21.4	9	6.3	6.22	23.3	10.6	7.15	6.94	19.8	11.8	8.81	viability, T/C [26]: 57%; viability, T/C [5]: 5.47%; viability, T/C [27]: 46.7%; viability, T/C [10]: 6.06%; viability, T/C [28]: 40.1%; viability, T/C [15]: 6.78%; viability, T/C [29]: 42.5%; viability, T/C [19]: 7.29%; viability, T/C [20]: 6.89%; viability, T/C [30]: 28.5%; viability, T/C [21]: 14.4%; viability, T/C [22]: 11.9%; viability, T/C [23]: 9.29%; viability, T/C [24]: 8.01%; viability, T/C [25]: 6.76%
